In patent publication US12677832B2, “Oxadiazole compounds for controlling or preventing phytopathogenic fungi” (PI INDUSTRIES LTD., priority 2019, dated 2026):

Columns and labels:
Colletotrichum capsici = Colletotrichum capsici (Anthracnose) radial growth on potato dextrose agar; format: cell-based; conditions: Colletotrichum truncatum, 168 h, radial growth after seven days compared to untreated control
Alternaria solani = Alternaria solani (Early Blight of Tomato/Potato) radial growth on potato dextrose agar; format: cell-based; conditions: 168 h, radial growth after seven days compared to untreated control
Phakopsora pachyrhizi = Phakopsora pachyrhizi Test in Soybean (preventive spray); format: in vivo; conditions: preventive spray on Soybean plants, inoculated one day after treatment, disease severity vs untreated control
Protocol: Example 7: Phakopsora pachyrhizi Test in Soybean Compounds were dissolved in 2% dimethyl sulfoxide/acetone and then mixed with water containing an emulsifier to a calibrated spray volume of 50 mL. This 50 mL spray solution was poured into spray bottles for further applications. To test the preventive activity of compounds, healthy young Soybean plants, raised in the greenhouse, were sprayed with the active compound preparation at the stated application rates inside the spray cabinets using hollow cone nozzles. One day after treatment, the plants were inoculated with a spore suspension containing 2×10^5Phakopsora pachyrhizi conidia. The inoculated plants were then kept in a greenhouse chamber at 22-24° C. temperature and 80-90% relative humidity for disease expression. A visual assessment of the compound's performance was carried out by rating the disease severity (0-100% scale) on treated plants 3, 7, 10 and 15 days after application. Efficacy (% control) of the compounds was calculated by comparing the disease rating in the treatment with the one of the untreated control. The sprayed plants were also assessed for plant compatibility by recording symptoms like necrosis, chlorosis and stunting.

Pyricularia oryzae = test: microbe, parasite or virus in culture; format: cell-based; conditions: 168 h, read-out: control

Row | Compound | inhibition of growth at 300 ppm (Colletotrichum capsici) [%] | inhibition of growth at 300 ppm (Alternaria solani) [%] | pest or weed control at 500 ppm (Phakopsora pachyrhizi) [%] | inhibition of growth at 300 ppm (Pyricularia oryzae) [%]
1 | O=C(CNc1cccc(C(F)(F)F)c1)c1ccc(-c2noc(C(F)(F)F)n2)cc1 [Compound 141, 1-(4-(5-(trifluoromethyl)-1,2,4-oxadiazol-3-yl)phenyl)-2-((3-(trifluoromethyl)phenyl)amino)ethan-1-one] | ≥ 70 | – | – | –
2 | O=C(CNc1ccc(F)c(F)c1)c1ccc(-c2noc(C(F)(F)F)n2)cc1 [Compound 27, 2-((3,4-difluorophenyl)amino)-1-(4-(5-(trifluoromethyl)-1,2,4-oxadiazol-3-yl)phenyl)ethan-1-one] | – | ≥ 70 | ≥ 70 | –
3 | O=C(CSc1ncn[nH]1)c1ccc(-c2noc(C(F)(F)F)n2)cc1 [Compound 149, 2-((1H-1,2,4-triazol-5-yl)thio)-1-(4-(5-(trifluoromethyl)-1,2,4-oxadiazol-3-yl)phenyl)ethan-1-one] | ≥ 70 | ≥ 70 | – | ≥ 70
4 | Cc1nnc(SCC(=O)c2ccc(-c3noc(C(F)(F)F)n3)cc2)o1 [Compound 150, 2-((5-methyl-1,3,4-oxadiazol-2-yl)thio)-1-(4-(5-(trifluoromethyl)-1,2,4-oxadiazol-3-yl)phenyl)ethan-1-one] | – | ≥ 70 | – | ≥ 70
5 | Cc1ccccc1SCC(=O)c1ccc(-c2noc(C(F)(F)F)n2)cc1 [Compound 66, 2-(o-tolylthio)-1-(4-(5-(trifluoromethyl)-1,2,4-oxadiazol-3-yl)phenyl)ethan-1-one] | – | – | ≥ 70 | ≥ 70
6 | O=C(COc1ccc(Br)nc1)c1ccc(-c2noc(C(F)(F)F)n2)cc1 [Compound 49, 2-((6-bromopyridin-3-yl)oxy)-1-(4-(5-(trifluoromethyl)-1,2,4-oxadiazol-3-yl)phenyl)ethan-1-one] | – | – | ≥ 70 | ≥ 70
7 | O=C(CS(=O)(=O)c1nccs1)c1ccc(-c2noc(C(F)(F)F)n2)cc1 [Compound 107, 2-(thiazol-2-ylsulfonyl)-1-(4-(5-(trifluoromethyl)-1,2,4-oxadiazol-3-yl)phenyl)ethan-1-one] | ≥ 70 | – | – | –
8 | O=C(CSc1ccncc1)c1ccc(-c2noc(C(F)(F)F)n2)cc1 [Compound 68, 2-(pyridin-4-ylthio)-1-(4-(5-(trifluoromethyl)-1,2,4-oxadiazol-3-yl)phenyl)ethan-1-one] | – | ≥ 70 | – | –
9 | COc1ccc([S+]([O-])CC(=O)c2ccc(-c3noc(C(F)(F)F)n3)cn2)cc1 (centres unmarked) [Compound 129, 2-((4-methoxyphenyl)sulfinyl)-1-(5-(5-(trifluoromethyl)-1,2,4-oxadiazol-3-yl)pyridin-2-yl)ethan-1-one] | ≥ 70 | – | – | –
10 | O=C(COc1cccnc1)c1ccc(-c2noc(C(F)(F)F)n2)cc1 [Compound 21, 2-(pyridin-3-yloxy)-1-(4-(5-(trifluoromethyl)-1,2,4-oxadiazol-3-yl)phenyl)ethan-1-one] | – | ≥ 70 | ≥ 70 | –
11 | O=C(C[S+]([O-])Cc1ccccc1)c1ccc(-c2noc(C(F)(F)F)n2)cc1 (centres unmarked) [Compound 80, 2-(benzylsulfinyl)-1-(4-(5-(trifluoromethyl)-1,2,4-oxadiazol-3-yl)phenyl)ethan-1-one] | – | ≥ 70 | – | ≥ 70
12 | Cc1ccc(Cl)cc1OCC(=O)c1ccc(-c2noc(C(F)(F)F)n2)cc1 [Compound 17, 2-(5-chloro-2-methylphenoxy)-1-(4-(5-(trifluoromethyl)-1,2,4-oxadiazol-3-yl)phenyl)ethan-1-one] | – | ≥ 70 | ≥ 70 | –
13 | O=C(CSc1nccs1)c1ccc(-c2noc(C(F)(F)F)n2)cc1 [Compound 73, 2-(thiazol-2-ylthio)-1-(4-(5-(trifluoromethyl)-1,2,4-oxadiazol-3-yl)phenyl)ethan-1-one] | – | – | – | ≥ 70
14 | O=C(C[S+]([O-])c1c(Cl)cccc1Cl)c1ccc(-c2noc(C(F)(F)F)n2)cn1 (centres unmarked) [Compound 132, 2-((2,6-dichlorophenyl)sulfinyl)-1-(5-(5-(trifluoromethyl)-1,2,4-oxadiazol-3-yl)pyridin-2-yl)ethan-1-one] | – | ≥ 70 | – | –
15 | O=C(CSC1CCCC1)c1ccc(-c2noc(C(F)(F)F)n2)cn1 [Compound 119, 2-(cyclopentylthio)-1-(5-(5-(trifluoromethyl)-1,2,4-oxadiazol-3-yl)pyridin-2-yl)ethan-1-one] | – | ≥ 70 | – | ≥ 70
16 | C=CCSCC(=O)c1ccc(-c2noc(C(F)(F)F)n2)cc1 [Compound 61, 2-(allylthio)-1-(4-(5-(trifluoromethyl)-1,2,4-oxadiazol-3-yl)phenyl)ethan-1-one] | – | ≥ 70 | – | –

Row | Compound | inhibition of growth at 300 ppm (Colletotrichum capsici) [%] | inhibition of growth at 300 ppm (Alternaria solani) [%] | pest or weed control at 500 ppm (Phakopsora pachyrhizi) [%] | inhibition of growth at 300 ppm (Pyricularia oryzae) [%]
17 | O=C(COc1ccc(F)cc1F)c1ccc(-c2noc(C(F)(F)F)n2)cc1 [Compound 18, 2-(2,4-difluorophenoxy)-1-(4-(5-(trifluoromethyl)-1,2,4-oxadiazol-3-yl)phenyl)ethan-1-one] | – | ≥ 70 | ≥ 70 | –
18 | CC(C)(C)[S+]([O-])CC(=O)c1ccc(-c2noc(C(F)(F)F)n2)cc1 (centres unmarked) [Compound 91, 2-(tert-butylsulfinyl)-1-(4-(5-(trifluoromethyl)-1,2,4-oxadiazol-3-yl)phenyl)ethan-1-one] | – | ≥ 70 | – | ≥ 70
19 | COc1ccc(NCC(=O)c2ccc(-c3noc(C(F)(F)F)n3)cc2)cc1 [Compound 145, 2-((4-methoxyphenyl)amino)-1-(4-(5-(trifluoromethyl)-1,2,4-oxadiazol-3-yl)phenyl)ethan-1-one] | ≥ 70 | – | – | ≥ 70
20 | O=C(CSc1ccc(C(F)(F)F)cc1)c1ccc(-c2noc(C(F)(F)F)n2)cc1 [Compound 71, 1-(4-(5-(trifluoromethyl)-1,2,4-oxadiazol-3-yl)phenyl)-2-((4-(trifluoromethyl)phenyl)thio)ethan-1-one] | – | – | – | ≥ 70
21 | Cc1ccccc1OCC(=O)c1ccc(-c2noc(C(F)(F)F)n2)cc1 [Compound 39, 2-(o-tolyloxy)-1-(4-(5-(trifluoromethyl)-1,2,4-oxadiazol-3-yl)phenyl)ethan-1-one] | – | ≥ 70 | – | –
22 | O=C(COc1cc(Cl)cc(Cl)c1)c1ccc(-c2noc(C(F)(F)F)n2)cc1 [Compound 15, 2-(3,5-dichlorophenoxy)-1-(4-(5-(trifluoromethyl)-1,2,4-oxadiazol-3-yl)phenyl)ethan-1-one] | ≥ 70 | – | ≥ 70 | –
23 | Cc1cnc([S+]([O-])CC(=O)c2ccc(-c3noc(C(F)(F)F)n3)cc2)s1 (centres unmarked) [Compound 83, 2-((5-methylthiazol-2-yl)sulfinyl)-1-(4-(5-(trifluoromethyl)-1,2,4-oxadiazol-3-yl)phenyl)ethan-1-one] | – | – | ≥ 70 | ≥ 70
24 | CN1CCN(CC(=O)c2ccc(-c3noc(C(F)(F)F)n3)cc2)CC1 [Compound 135, 2-(4-methylpiperazin-1-yl)-1-(4-(5-(trifluoromethyl)-1,2,4-oxadiazol-3-yl)phenyl)ethan-1-one] | ≥ 70 | ≥ 70 | ≥ 70 | –
25 | Cc1cccc(NCC(=O)c2ccc(-c3noc(C(F)(F)F)n3)cc2)c1 [Compound 144, 2-(m-tolylamino)-1-(4-(5-(trifluoromethyl)-1,2,4-oxadiazol-3-yl)phenyl)ethan-1-one] | ≥ 70 | – | – | –
26 | O=C(CS(=O)(=O)c1ccncc1)c1ccc(-c2noc(C(F)(F)F)n2)cc1 [Compound 112, 2-(pyridin-4-ylsulfonyl)-1-(4-(5-(trifluoromethyl)-1,2,4-oxadiazol-3-yl)phenyl)ethan-1-one] | – | ≥ 70 | – | ≥ 70
27 | CC(C)S(=O)(=O)CC(=O)c1ccc(-c2noc(C(F)(F)F)n2)cc1 [Compound 106, 2-(isopropylsulfonyl)-1-(4-(5-(trifluoromethyl)-1,2,4-oxadiazol-3-yl)phenyl)ethan-1-one] | – | – | – | ≥ 70
28 | CC(C)SCC(=O)c1ccc(-c2noc(C(F)(F)F)n2)cc1 [Compound 69, 2-(isopropylthio)-1-(4-(5-(trifluoromethyl)-1,2,4-oxadiazol-3-yl)phenyl)ethan-1-one] | – | ≥ 70 | – | ≥ 70
29 | O=C(C[S+]([O-])C1CCCC1)c1ccc(-c2noc(C(F)(F)F)n2)cn1 (centres unmarked) [Compound 133, 2-(cyclopentylsulfinyl)-1-(5-(5-(trifluoromethyl)-1,2,4-oxadiazol-3-yl)pyridin-2-yl)ethan-1-one] | – | ≥ 70 | – | ≥ 70
30 | O=C(C[S+]([O-])c1cccc(F)c1)c1ccc(-c2noc(C(F)(F)F)n2)cn1 (centres unmarked) [Compound 128, 2-((3-fluorophenyl)sulfinyl)-1-(5-(5-(trifluoromethyl)-1,2,4-oxadiazol-3-yl)pyridin-2-yl)ethan-1-one] | – | ≥ 70 | – | ≥ 70
31 | CC(C)(C)SCC(=O)c1ccc(-c2noc(C(F)(F)F)n2)cc1 [Compound 70, 2-(tert-butylthio)-1-(4-(5-(trifluoromethyl)-1,2,4-oxadiazol-3-yl)phenyl)ethan-1-one] | – | – | – | ≥ 70
32 | Cc1ccccc1NCC(=O)c1ccc(-c2noc(C(F)(F)F)n2)cc1 [Compound 146, 2-(o-tolylamino)-1-(4-(5-(trifluoromethyl)-1,2,4-oxadiazol-3-yl)phenyl)ethan-1-one] | ≥ 70 | – | – | –
